Results on eleven compounds are retold here after patent US11370779B2, “Pharmaceutical composition for preventing or treating acute myeloid leukemia or metastatic breast cancer” (PELEMED CO., LTD., priority 2017, dated 2022).

The test system of one data set is MV4;11 cells. Briefly: Cell viability, EZ-Cytox tetrazolium assay, MV4;11. The class given is cell-based, human. On the procedure:
The cultured cells were incubated at 3° C. with 5% CO2.
(§1) Cell viability was assessed by a tetrazolium-based assay using the EZ-Cytox Cell Viability Assay kit (DaeilLab, Korea). Briefly, 2,000 to 15,000 cells were plated in 96-well plates in 100 μl of medium. The next day, the cells were treated with compounds together with dimethyl sulfoxide (DMSO) as a negative control. Three days (72 hours) after the drug addition, 15 μl of the EZ-Cytox kit reagent was added to each well of the 96-well plate and then incubated at 37° C. in a humidified CO2 incubator for 4 hours. After incubation, the optical density (OD) was measured at a wavelength of 450 nm using a Victor multilabel reader (Perkin Elmer, Waltham, Mass., USA).

In another data set the test system is MDA-MB-231. Briefly: Cell viability, EZ-Cytox tetrazolium assay, MDA-MB-231. The class given is cell-based, human. The conditions noted are these: 72 hours. On the procedure:
MDA-MB-231 (metastatic breast cancer, ATCC HTB-26), Jurkat (human acute T lymphocytic leukemia, ATCC TIB-152), and K-562 (human chronic myelogenous leukemia, ATCC CCL-243) cells were cultured in RPMI-1640 (Sigma Co.). MCF7 (human breast adenocarcinoma, ATCC HTB-22) and PC-3 (human prostate adenocarcinoma, ATCC CRL-1435) cells were cultured in DMEM (Sigma Co.) medium supplemented with 10% fetal bovine serum and 1% penicillin/streptomycin. The cultured cells were incubated at 3° C. with 5% CO2.
as §1, with “USA). The IC50 was calculated by nonlinear regression using Prism version 5.01 (GraphPad, La Jolla, Calif., USA).” for “USA).”

The test system of the next data set is MDA-MB-231 xenograft. Briefly: MDA-MB-231 mouse tumor xenograft. It is filed as in vivo. The conditions noted are these: 20 mg/kg/p.o/day, 4 weeks. On the procedure:
6-weeks-old Balb/c nu/nu mice (female) were purchased from Central Lab. Animal Inc. to be used. […] The candidate substances LDD-2614 (Compound 21), 2633 (Compound 28), 2634 (Compound 34), 2635 (Compound 33) were administered at 20 mg/kg/p.o/day, and doxorubicin, which was a control, was administered at 5 mg/kg/i.p (once a week) for 4 weeks.

The subject of a further data set is MOLM14 Wild type. Briefly: Cell proliferation MTT assay, MOLM14 wild type. It is filed as cell-based. The conditions noted are these: Homo sapiens, MOLM-14. For orientation: Formazan colour is commonly taken as a measure of viable cells.
A further data set has as its system MOLM14 FLT3-ITD-D835Y. Briefly: Cell proliferation MTT assay, MOLM14-ITD-D835Y. The class given is cell-based, human. The conditions noted are these: for GI50: Homo sapiens, MOLM-14.
The target in a further data set is FLT3 kinase (Homo sapiens (Human), UniProt P36888). Briefly: In vitro FLT3 kinase HTRF assay (Example 2). The class given is biochemical. The note with it: for IC50: Table 2, HTRF. On the procedure:
Inhibition of the FLT3 kinase activity was measured using homogeneous, time-resolved fluorescence (HTRF) assays. Recombinant proteins containing the FLT3 kinase domain were purchased from Carna biosciences (Japan). Optimal enzyme, ATP, and substrate concentrations were established using the HTRF KinEASE kit (Cisbio, France) according to the manufacturer's instructions. The FLT3 enzymes were mixed in sequence with diluted compounds and peptide substrates in a kinase reaction buffer (50 mM HEPES (pH 7.0), 500 μM ATP, 0.1 mM sodium orthovanadate, 5 mM MgCl2, 1 mM DTT, 0.01% bovine serum albumin (BSA), and 0.02% NaN3). After the addition of the reagents for detection, the TR-FRET signal was measured using a Victor multilabel reader (Perkin Elmer, Waltham, Mass., USA). […] JAK2, JAK3, cMET, and RET in vitro kinase assays were also performed using the HTRF assay.
(In TR-FRET formats the signal depends on donor and acceptor labels being close together.)

A further data set addresses cMET (Homo sapiens (Human), UniProt P08581). Briefly: cMET in vitro kinase HTRF assay. The class given is biochemical. The note with it: mean ± S.D. On the procedure: Inhibition of the FLT3 kinase activity was measured using homogeneous, time-resolved fluorescence (HTRF) assays. Recombinant proteins containing the FLT3 kinase domain were purchased from Carna biosciences (Japan). Optimal enzyme, ATP, and substrate concentrations were established using the HTRF KinEASE kit (Cisbio, France) according to the manufacturer's instructions. The FLT3 enzymes were mixed in sequence with diluted compounds and peptide substrates in a kinase reaction buffer (50 mM HEPES (pH 7.0), 500 μM ATP, 0.1 mM sodium orthovanadate, 5 mM MgCl2, 1 mM DTT, 0.01% bovine serum albumin (BSA), and 0.02% NaN3). After the addition of the reagents for detection, the TR-FRET signal was measured using a Victor multilabel reader (Perkin Elmer, Waltham, Mass., USA). The IC50 was calculated by nonlinear regression using Prism version 5.01 (GraphPad). JAK2, JAK3, cMET, and RET in vitro kinase assays were also performed using the HTRF assay.

The next data set deals with PC-3 cells. Briefly: Cytotoxicity assay, PC-3. The conditions noted are these: Homo sapiens, mean ± S.D. The class given is cell-based. On the procedure:
MDA-MB-231 (metastatic breast cancer, ATCC HTB-26), Jurkat (human acute T lymphocytic leukemia, ATCC TIB-152), and K-562 (human chronic myelogenous leukemia, ATCC CCL-243) cells were cultured in RPMI-1640 (Sigma Co.). MCF7 (human breast adenocarcinoma, ATCC HTB-22) and PC-3 (human prostate adenocarcinoma, ATCC CRL-1435) cells were cultured in DMEM (Sigma Co.) medium supplemented with 10% fetal bovine serum and 1% penicillin/streptomycin. The cultured cells were incubated at […] with 5% CO2. Cell viability was assessed by a tetrazolium-based assay using the EZ-Cytox Cell Viability Assay kit (DaeilLab, Korea). […] The next day, the cells were treated with compounds together with dimethyl sulfoxide (DMSO) as a negative control. Three days (72 hours) after the drug addition, 15 μl of the EZ-Cytox kit reagent was added to each well of the 96-well plate and then incubated at 37° C. in a humidified CO2 incubator for 4 hours. After incubation, the optical density (OD) was measured at a wavelength of 450 nm using a Victor multilabel reader (Perkin Elmer, Waltham, Mass., USA). The IC50 was calculated by nonlinear regression using Prism version 5.01 (GraphPad, La Jolla, Calif., USA).

Another data set deals with MV4;11 xenograft. Briefly: MV4;11 mouse tumor xenograft, intravenous LDD1937. It is filed as in vivo. On the procedure: The drug or the control PBS was injected daily for a duration of 21 days.
The next data set relates to MV4-11 xenograft. Briefly: MV4-11 mouse tumor xenograft, oral administration.
[1] abbreviates: Homo sapiens, MV4-11, 72 hours, read-out: GI50(nM) MV4;11.

Structures can show the parent of a compound that is named as a salt. Where two headings read alike, the source gives them in different places.

FLT3 kinase, sequence (P36888 610-943): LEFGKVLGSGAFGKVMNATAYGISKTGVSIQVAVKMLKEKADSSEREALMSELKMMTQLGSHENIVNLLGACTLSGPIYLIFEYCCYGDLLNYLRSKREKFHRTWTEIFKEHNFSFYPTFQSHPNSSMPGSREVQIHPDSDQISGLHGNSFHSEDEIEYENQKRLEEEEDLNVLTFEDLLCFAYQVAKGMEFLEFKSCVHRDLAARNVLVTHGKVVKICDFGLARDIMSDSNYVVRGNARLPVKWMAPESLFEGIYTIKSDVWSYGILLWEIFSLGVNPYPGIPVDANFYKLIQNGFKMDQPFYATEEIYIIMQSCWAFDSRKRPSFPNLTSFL
cMET, sequence (P08581 25-1390): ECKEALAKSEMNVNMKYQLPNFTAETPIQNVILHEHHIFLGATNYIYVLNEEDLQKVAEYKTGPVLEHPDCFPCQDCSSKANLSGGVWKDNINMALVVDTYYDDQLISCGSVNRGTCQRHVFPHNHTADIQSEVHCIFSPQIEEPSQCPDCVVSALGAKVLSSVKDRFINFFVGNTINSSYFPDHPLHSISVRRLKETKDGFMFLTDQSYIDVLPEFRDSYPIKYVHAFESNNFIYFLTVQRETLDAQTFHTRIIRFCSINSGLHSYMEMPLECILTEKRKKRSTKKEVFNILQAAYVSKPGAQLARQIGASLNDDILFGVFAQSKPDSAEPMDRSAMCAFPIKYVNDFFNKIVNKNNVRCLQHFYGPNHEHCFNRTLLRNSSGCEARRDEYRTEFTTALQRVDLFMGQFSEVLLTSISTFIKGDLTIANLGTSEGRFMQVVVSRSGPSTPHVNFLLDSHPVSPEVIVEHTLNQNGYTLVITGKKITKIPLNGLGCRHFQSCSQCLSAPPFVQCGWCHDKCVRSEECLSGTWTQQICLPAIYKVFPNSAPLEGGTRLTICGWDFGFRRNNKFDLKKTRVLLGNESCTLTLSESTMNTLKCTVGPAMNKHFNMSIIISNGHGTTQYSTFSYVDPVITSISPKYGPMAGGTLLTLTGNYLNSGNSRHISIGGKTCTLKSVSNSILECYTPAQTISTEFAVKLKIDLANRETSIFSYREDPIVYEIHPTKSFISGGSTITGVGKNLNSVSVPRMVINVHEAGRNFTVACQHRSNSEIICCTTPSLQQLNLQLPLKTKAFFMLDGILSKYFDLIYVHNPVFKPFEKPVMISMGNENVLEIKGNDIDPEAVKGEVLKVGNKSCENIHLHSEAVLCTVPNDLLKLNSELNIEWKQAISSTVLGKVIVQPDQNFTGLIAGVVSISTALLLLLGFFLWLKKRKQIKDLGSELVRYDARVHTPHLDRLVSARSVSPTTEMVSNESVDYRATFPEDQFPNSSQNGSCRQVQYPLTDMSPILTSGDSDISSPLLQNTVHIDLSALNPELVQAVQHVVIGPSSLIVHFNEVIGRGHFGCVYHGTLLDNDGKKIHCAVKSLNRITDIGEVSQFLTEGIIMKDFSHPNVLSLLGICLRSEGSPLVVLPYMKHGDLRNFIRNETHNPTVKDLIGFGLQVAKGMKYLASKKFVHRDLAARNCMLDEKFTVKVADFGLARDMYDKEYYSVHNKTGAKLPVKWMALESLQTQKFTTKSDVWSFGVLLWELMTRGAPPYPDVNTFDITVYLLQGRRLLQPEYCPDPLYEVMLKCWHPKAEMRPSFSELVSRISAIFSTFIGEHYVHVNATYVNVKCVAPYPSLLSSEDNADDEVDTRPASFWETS
Method for MOLM14 FLT3-ITD-D835Y: (§2) MOLM14 were purchased from the ATCC and the cells were maintained in RPMI medium (Hyclone) with 10% Fetal bovine serum (Gibco) and 1% penicillin/streptomycin.
Mutagenesis is performed in FLT3-ITD MSCV plasmid using Q5 site-directed mutagenesis kit (E05545). […] Retroviral particles were produced by transiently transfecting HEK293T cells with Retroviral vectors together with packaging vectors, GPE and VSVG. 48 h after transfection, media containing viral particles were collected and filtered for infection. Viral particles were infected to MOLM14 cells and 48 h after infection, infected cells were selected with puromycin (1 μg/mL).
From the text for MOLM14 Wild type: as §2
Method for MV4-11 xenograft: The drug or the control PBS was administered daily for a duration of 21 days. Tumor sizes were measured twice a week for 21 days, and the tumor volumes were calculated with the following formula: V (volume)=X (length)×D (width)2/2. After 21 days, the mice were sacrificed, and the tumor weights were measured.
An in vivo MV4-11 xenograft study was performed to determine the efficacy of the indirubin derivatives. MV4-11 cells were subcutaneously injected into BALB/c nu/nu mice, and tumors were allowed to grow to a size of approximately 100 mm^3.

The GI50 is the concentration giving 50% growth inhibition. For the compound `CN1CCN(CCO/N=C2/C(=C3/C(=O)Nc4ccc(F)cc43)Nc3ccccc32)CC1.Cl.Cl` [Compound 34, (2Z,3E)-5′-fluoro-3-((2-(4-methylpiperazin-1-yl)ethoxy)imino)-[2,3′-biindolinylidene]-2′-one dihydrochloride], the GI50 is 11.1 nM in the data set on MV4;11 cells (setting [1]) and 127 nM with MDA-MB-231 (Homo sapiens, MDA-MB-231). Further, the “weights of the liver and the kidney” value with MDA-MB-231 xenograft was “no significant difference”.
Regarding `CNC(=O)c1cc(Oc2ccc(NC(=O)Nc3ccc(Cl)c(C(F)(F)F)c3)cc2)ccn1` [Sorafenib], the GI50 in the data set with MOLM14 Wild type was 28 nM. Further, the “GI50 (nM) MOLM14-ITD D835Y” value in the data set on MOLM14 FLT3-ITD-D835Y is recorded as “No Activity”.
For orientation: IC50 means the concentration that inhibits the measured activity by half. A lower IC50 goes with higher potency. As to `COC(=O)c1ccc2c(c1)/C(=C1/Nc3ccccc3/C1=N\OCCN1CCNCC1)C(=O)N2.Cl.Cl` [Compound 4, Methyl (2Z,3E)-2′-oxo-3-((2-(piperazin-1-yl)ethoxy)imino)-[2,3′-biindolinylidene]-5′-carboxylate dihydrochloride], at FLT3 kinase (FLT3 vs JAK2, JAK3, cMET, IRAK4), the “difference in the IC50 between FLT3 and other kinases” value is at least 170 fold. Also, the “increase of activity against MV4;11 compared to Compound 1” value in the data set with MV4;11 cells is listed as 40 fold. Further, the GI50 with MV4;11 cells (setting [1]) amounted to 1 nM; in the data set with MV4;11 cells (Homo sapiens, MV4-11, Table 4, mean ± S.D., read-out: GI50 (μM) MV-4-11) it was 1.2 ± 0.15 nM; with PC-3 cells it was 1.1 ± 0.14 µM. Besides, the IC50 in the data set on MV4;11 cells (Homo sapiens, MV4-11, Table 1, 72 hours) came out at 1 nM; against cMET it was 0.25 ± 0.074 µM. Moreover, the “day from which the tumor disappeared” value in the data set with MV4;11 xenograft (10 mg/kg i.v. daily, based on measured tumor volume) amounted to 3 days. In the data set on MV4;11 xenograft (5 or 10 mg/kg i.v., 21 days, between groups), the “body weight during the administration period” value is listed as “no significant difference in body weight”.
Take `CC1(COc2ccc3c(c2)ncn3-c2ccc3cccc(N4CCC(N)CC4)c3n2)COC1` [Crenolanib]: the GI50 in the data set on MOLM14 Wild type was 4.7 nM; in the data set on MOLM14 FLT3-ITD-D835Y, 15 nM.
At FLT3 kinase, `O=C1Nc2ccc(F)cc2/C1=C1/Nc2ccc(F)cc2/C1=N\OCCN1CCOCC1` [Compound 27, (2Z,3E)-5,5′-difluoro-3-((2-morpholinoethoxy)imino)-[2,3′-biindolinylidene]-2′-one hydrochloride] gave an IC50 of 939 nM. In addition, the GI50 in the data set on MV4;11 cells (setting [1]) was 116 nM; in the data set with MDA-MB-231 (Homo sapiens, MDA-MB-231), above 10 nM.
For the compound “(2Z,3E)-5′-fluoro-3-((2-(pyrrolidin-1-yl)ethoximino)-[2,3′-biindolinylidene]-2′-one hydrochloride [Compound 36]”, at FLT3 kinase, it took 267 nM to reach half-maximal inhibition (IC50). Besides, the GI50 in the data set with MV4;11 cells (72 hours, read-out: GI50(nM) MV4;11) was found to be 212 nM; in the data set on MDA-MB-231, 805 nM.
At FLT3 kinase, `O=C1Nc2ccc([N+](=O)[O-])cc2/C1=C1/Nc2ccc(O)cc2/C1=N\O` [Compound 13, (2Z,3E)-5-hydroxy-3-(hydroxyimino)-5′-nitro-[2,3′-biindolinylidene]-2′-one] yielded an IC50 of 23.4 nM. Moreover, the GI50 stood at 170 nM with MV4;11 cells (setting [1]) and 568 nM in the data set with MDA-MB-231 (Homo sapiens, MDA-MB-231).
Consider `Cl.Cl.O=C1Nc2ccccc2/C1=C1/Nc2ccccc2/C1=N\OCCN1CCNCC1` [Compound 28, (2Z,3E)-3-((2-(piperazin-1-yl)ethoxy)imino)-[2,3′-biindolinylidene]-2′-one dihydrochloride], for which the GI50 in the data set with MV4;11 cells (setting [1]) was found to be 0.51 nM; in the data set with MDA-MB-231 (Homo sapiens, MDA-MB-231), 276 nM. Further, the “weights of the liver and the kidney” value with MDA-MB-231 xenograft was “no significant difference”. Besides, the “weight loss or other signs of toxicity during the administration period” value with MV4-11 xenograft (20 mg/kg oral once daily for 21 days) was “no weight loss or any other signs of toxicity”. Besides, the “day by which the tumor disappeared” value in the data set with MV4-11 xenograft (20 mg/kg oral once daily, based on measured tumor volume) is at most 14 days.
Regarding `Cl.Cl.O=C1Nc2ccc(F)cc2/C1=C1/Nc2ccc(F)cc2/C1=N\OCCN1CCNCC1` [Compound 21, (2Z,3E)-5,5′-difluoro-3-((2-(piperazin-1-yl)ethoxy)imino)-[2,3′-biindolinylidene]-2′-one dihydrochloride], the concentration for 50% growth inhibition (GI50) in the data set on MV4;11 cells (setting [1]) stood at 8.9 nM; in the data set with MDA-MB-231 (Homo sapiens, MDA-MB-231), 121 nM. In the data set with MDA-MB-231 xenograft, the “weights of the liver and the kidney” value is recorded as “no significant difference”.
On to `CO[C@@H]1[C@H](N(C)C(=O)c2ccccc2)C[C@H]2O[C@]1(C)n1c3ccccc3c3c4c(c5c6ccccc6n2c5c31)C(=O)NC4` [Midostaurin], for which the GI50 in the data set with MOLM14 Wild type was 80 nM; with MOLM14 FLT3-ITD-D835Y it was 79 nM.
On the same counts, the results for `CCc1nc(C(N)=O)c(Nc2ccc(N3CCC(N4CCN(C)CC4)CC3)c(OC)c2)nc1NC1CCOCC1` [Gilteritinib] are 8.5 nM and 43 nM.
